Data: the NIST ThermoML archive (doi:10.1021/je300076y)
Numbers after ± are expanded uncertainties.

Experiments:
[1] = Liquid; for mass density: 293.15 K, 101.33 kPa, Vibrating tube method
[2] = refractive index (Na D-line) (dimensionless); conditions: 101.33 kPa, Liquid, Standard Abbe refractometry

| mass density [1] | vapor or sublimation pressure ([1]; 353.61 K) | vapor or sublimation pressure ([1]; 353.71 K) | refractive index ([2]; 293.15 K) | vapor or sublimation pressure ([1]; 472.25 K) | refractive index ([2]; 293.1 K) | vapor or sublimation pressure ([1]; 439.35 K) | SMILES |
| --- | --- | --- | --- | --- | --- | --- | --- |
| 788.4 ± 0.3 kg/m3 | 95.5 ± 2.5 kPa | 95.5 ± 2.5 kPa | 1.3877 ± 0.0007 | – | – | – | CC(C)(C)O [2-methylpropan-2-ol] |
| 1024.5 ± 0.3 kg/m3 | – | – | – | 95.5 ± 2.5 kPa | 1.537 ± 0.0008 | – | CC(=O)c1ccccc1 [acetophenone] |
| 935 ± 0.3 kg/m3 | – | – | 1.3835 ± 0.0007 | – | – | 95.5 ± 2.5 kPa | CCO[Si](OCC)(OCC)OCC [tetraethoxysilane] |
